Source: ChEMBL document CHEMBL4602605, “Fluoroquinolones structural and medicinal developments (2013-2018): Where are we now?” (Bioorg Med Chem, 2019)
≈ marks a conversion by molar mass, not a printed value.

test system: Mycobacterium tuberculosis; experiment: Antimicrobial activity against rifampin and isoniazid resistant Mycobacterium tuberculosis Beijing harboring rpoB Ser 531-Leu 315 and katC Ser-Thr mutant incubated for 10 days by microbroth dilution method; assay type: functional

Row | Structure (SMILES) | MIC [µg/mL]
1 | CCOc1cccc2cc(-c3cc4c(cc3F)c(=O)c(C(=O)O)cn4CC)c(=O)oc12 | 1.5 (≈ 3.54 µM)
2 | CCn1cc(C(=O)O)c(=O)c2cc(F)c(-c3cc4cc(C(C)(C)C)cc(C(C)(C)C)c4oc3=O)cc21 | 3.1 (≈ 6.31 µM)
3 | CCn1cc(C(=O)O)c(=O)c2cc(F)c(-c3cc4cc(Br)ccc4oc3=O)cc21 | 6.2 (≈ 13.5 µM)
